System: SH-SY5Y cells
Assay: Pretreatment with peptides before MG stress, MTT cell viability
Type: cell-based, human
Conditions: 4 h pretreatment 1 × 10^−7 M, then 1.2 mM MG 16 h, n = 3, octuplicates
Procedure: Figure 5 PrRP31 and its analog increased cell viability during the MG-induced stress. Pre-treatment for 4 h with PrRP31 and palm^11-PrRP31 at a concentration of: (a) 1 × 10^−5 M; or (b) 1 × 10^−7 M, followed by exposure to 1.2 mM MG for 16 h in SH-SY5Y cells. Pre-treatment for 4 h with PrRP31 and palm^11-PrRP31 at a concentration of: (c) 1 × 10^−5 M; (d) 1 × 10^−7 M in SH-SY5Y cells; or (e) 1 × 10^−5 M in rat primary neuronal culture, followed by exposure to 0.6 mM MG for 16 h in SH-SY5Y cells. MG toxicity was measured with MTT assay. Data are presented as the means ± SEM as a percentage of control cells treated with vehicle analyzed by a Student’s t-test vs. 0.6 mM MG # p < 0.5, ## p < 0.01, ### p < 0.001, #### p < 0.0001 (n = 3, each sample in octuplicates). Control vs. 0.6 mM MG analyzed by a Student´s t-test, * p < 0.5, ** p < 0.01.
The MTT test was used to measure cell viability. The MTT reagent was dissolved in RPMI-1640 without phenol red. Cells were incubated for 2 h with a 10% solution of MTT at 37 °C. Living cells converted soluble MTT to insoluble formazan, which was subsequently dissolved in DMSO. The absorbance was measured at a wavelength of 560 nm.
For this assay, cells were cultured in 96-well plates at a density of 40,000 cells per well. The growth medium was exchanged for serum-free DMEM 16 h before the experiment. […]

CC[C@H](C)[C@H](NC(=O)CNC(=O)[C@H](CCCNC(=N)N)NC(=O)[C@H](CO)NC(=O)[C@H](C)NC(=O)[C@H](Cc1ccc(O)cc1)NC(=O)[C@H](Cc1c[nH]c2ccccc12)NC(=O)[C@H](C)NC(=O)[C@@H]1CCCN1C(=O)[C@H](CC(N)=O)NC(=O)[C@@H](NC(=O)[C@H](CC(=O)O)NC(=O)[C@@H]1CCCN1C(=O)[C@@H](NC(=O)[C@H](CCCNC(=N)N)NC(=O)[C@@H](NC(=O)[C@H](CCC(=O)O)NC(=O)[C@H](CCSC)NC(=O)[C@H](CO)NC(=O)[C@H](Cc1c[nH]cn1)NC(=O)[C@H](CCCNC(=N)N)NC(=O)[C@H](Cc1c[nH]cn1)NC(=O)[C@@H](NC(=O)[C@H](CCCNC(=N)N)NC(=O)[C@@H](N)CO)[C@@H](C)O)[C@@H](C)CC)[C@@H](C)O)[C@@H](C)CC)C(=O)N[C@@H](CCCNC(=N)N)C(=O)N1CCC[C@H]1C(=O)N[C@H](C(=O)NCC(=O)N[C@@H](CCCNC(=N)N)C(=O)N[C@@H](Cc1ccccc1)C(N)=O)C(C)C [PrRP31]
cell viability (% of control cells): not
